The values below come from patent US20110065632A1, “PHARMACEUTICAL COMPOSITIONS OF SOMATOSTATIN-DOPAMINE CONJUGATES” (priority 2008, published 2011).

Each structure is given as a SMILES string. Numbered stars: 1 amine (or outer) side, 2 acyl side, 3 side chain; on linkers, the order of the positions; unused ones are H or OH. Bridge positions count the residues as written; N and C are the ends. Square brackets hold non-standard residues; d marks the D form. Peptide text beside a SMILES is read from it. * marks the point of attachment. X3 = CCCN1C[C@H](CSCC(=O)Oc2ccc(C[C@H](N[*:1])C(=O)[*:2])cc2I)C[C@@H]2c3cccc4[nH]cc(c34)C[C@H]21; X1 = CCCN1C[C@H](CSCC(=O)*)C[C@@H]2c3cccc4[nH]cc(c34)C[C@H]21; AEEA = NCCOCCOCC(=O)O

In one test the target is T1, hsst1 (Homo sapiens, UniProt P30872).
T1 construct: expressed in transfected cells
The test can be described thus: Somatostatin receptor radioligand binding assay, hsst1. The following applies: CHO-K1 membranes, [125I-Tyr11]SS-14; read-out: hsst1 Ki. The protocol: (§1) Specificity and selectivity of the somatostatin analogues used to synthesize the somatostatin-dopamine chimers were determined by a radioligand binding assay on CHO-K1 cells stably transfected with each of the SSTR subtypes, as follows. Somatostatin analogs are also described in U.S. Patent Application Publication No. 02210006790. The complete coding sequences of genomic fragments of the SSTR 1 (e.g., Genbank accession No. M81829), SSTR 2 (e.g., Genbank accession No. M81830), SSTR 3 (e.g., Genbank accession No. L07062), and SSTR 4 (e.g., Genbank accession No. AL049651) genes and a cDNA clone for SSTR 5 (e.g., Genbank accession No. D16827) was subcloned into the mammalian expression vector pCMV (Life Technologies, Milano, Italy). Other SSTR sequences are known to the skilled artisan. Clonal cell lines stably expressing SSTR's 1-5 were obtained by transfection into CHO-K1 cells (ATCC, Manassas, Va., USA) using the calcium phosphate co-precipitation method (Davis L, et al., 1994 In: Basic methods in Molecular Biology, 2nd edition, Appleton & Lange, Norwalk, Conn., USA: 611-646). The plasmid pRSV-neo (ATCC) was included as a selectable marker. Clonal cell lines were selected in RPMI 1640 media containing 0.5 mg/mL of G418 (Life Technologies, Milano, Italy), ring cloned, and expanded into culture.
(§2) Membranes for in vitro receptor binding assays were obtained by homogenizing the CHO-K1 cells expressing the SSTR's subtypes in ice-cold 50 mM Tris-HCl and centrifuging twice at 39,000 g (10 min), with an intermediate resuspension in fresh buffer. The final pellets were resuspended in 10 mM Tris-HCl for assay.
(§3) For the SSTR 1, 3, 4, and 5 assays, aliquots of the membrane preparations were incubated 90 minutes at 25° C. with 0.05 nM [^125I-Tyr11]SS-14 in 50 mM HEPES (pH 7.4) containing 10 mg/mL BSA, 5 mM MgCl2, 200 KIU/mL Trasylol, 0.02 mg/mL bacitracin, and 0.02 mg/mL phenylmethylsuphonyl fluoride. The final assay volume was 0.3 mL.
(§4) For the SSTR 2 assay, 0.05 nM [^125I]MK-678 was employed as the radioligand and the incubation time was 90 minutes at 25° C. The incubations were terminated by rapid filtration through GF/C glass microfiber filters (Whatman Co.) (pre-soaked in 0.3% polyethylenimine) using a BRANDEL filtration manifold. Each tube and filter was washed three times with 5 mL aliquots of ice-cold buffer. Specific binding was defined as the total radioligand bound minus that bound in the presence of 1000 nM SS-14 for SSTR 1, 3, 4, and 5, or 1000 nM MK-678 for SSTR2.
(§5) Using the discussed assays, the inhibition constants (Ki) for the five human somatostatin receptors (hSSTR1-hSSTR5) and the dopamine-2 receptor (hUTII and hDA2) were measured for the exemplified somatostatin-dopamine conjugates, as follows: […]

For another test, the target named is T2, hsst2 (Homo sapiens, UniProt P30874).
T2 construct: expressed in transfected cells
Nature of the test: Somatostatin receptor radioligand binding assay, hsst2. The following applies: CHO-K1 membranes, [125I]MK-678; read-out: hsst2 Ki. As to the method: as §1, §2, §4

Another test has as its target T3, hsst3 (Homo sapiens, UniProt P32745).
T3 construct: expressed in transfected cells
Nature of the test: Somatostatin receptor radioligand binding assay, hsst3. The following applies: CHO-K1 membranes, [125I-Tyr11]SS-14; read-out: hsst3 Ki. As to the method:
as §1, §2, §3, §4, §5

The target in another test is T4, hsst5 (Homo sapiens, UniProt P35346).
T4 construct: expressed in transfected cells
Nature of the test: Somatostatin receptor radioligand binding assay, hsst5. The following applies: CHO-K1 membranes, [125I-Tyr11]SS-14; read-out: hsst5 Ki. The protocol: as §1, §2, §3, §4

Another test addresses T5, hUTII (Homo sapiens, UniProt Q9UKP6).
T5 sequence (Q9UKP6 1-389): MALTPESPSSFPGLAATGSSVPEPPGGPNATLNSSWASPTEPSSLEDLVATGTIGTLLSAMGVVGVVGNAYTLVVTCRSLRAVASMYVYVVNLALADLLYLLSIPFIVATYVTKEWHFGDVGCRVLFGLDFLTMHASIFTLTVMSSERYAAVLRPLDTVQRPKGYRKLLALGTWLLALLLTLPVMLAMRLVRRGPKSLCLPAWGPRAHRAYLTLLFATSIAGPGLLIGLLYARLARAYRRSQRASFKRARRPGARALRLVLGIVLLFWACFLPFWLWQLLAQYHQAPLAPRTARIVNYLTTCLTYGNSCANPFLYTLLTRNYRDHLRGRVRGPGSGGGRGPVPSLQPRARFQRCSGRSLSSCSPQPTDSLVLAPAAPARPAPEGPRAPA
Nature of the test: hUTII inhibition constant. The test is classed as binding. The following applies: read-out: hUTII Ki. The protocol: as §5

In the next test the target is hDA2. Nature of the test: Dopamine-2 receptor radioligand binding assay. Details: species or system human. Conditions: [3H]spiperone. The protocol:
Specificity and selectivity for the dopamine-2 receptor of the dopamine analogues used to synthesize the somatostatin-dopamine chimers may be determined by a radioligand binding assay as follows.
Crude membranes were prepared by homogenization of frozen rat corpus striatum (Zivic Laboratories, Pittsburgh, Pa., USA) in 20 mL of ice-cold 50 mM Tris-HCl with a Brinkman Polytron cell disrupter (setting 6, 15 sec). Buffer was added to obtain a final volume of 40 mL, and the homogenate was centrifuged in a Sorval SS-34 rotor at 39,000 g for 10 minutes at 0-4° C. The resulting supernatant was decanted and discarded. The pellet was rehomogenized in ice-cold buffer, pre-incubated at 37° C. for 10 min, diluted, and centrifuged as before. The final pellet was resuspended in buffer and held on ice for the receptor binding assay.
For assay, aliquots of the washed membrane preparations and test compounds were incubated for 15 minutes (37° C.) with 0.25 nM [^3HI]spiperone (16.5 Ci.mmol, New England Nuclear, Boston, Mass., USA) in 50 mM Tris HCl, 120 mM NaCl, 5 mM KCl, 2 mM CaCl2, 1 mM MgCl2. The final assay volume was 1.0 mL. The incubations were terminated by rapid filtration through GF/B glass fibre filters using a Brandel filtration manifold. Each tube and filter was then washed three times with 5-mL aliquots of ice-cold buffer. Specific binding was defined as the total radioligand bound minus that bound in the presence of 1000 nM (+) butaclamol.
as §5

T1 sequence (P30872 whole entry): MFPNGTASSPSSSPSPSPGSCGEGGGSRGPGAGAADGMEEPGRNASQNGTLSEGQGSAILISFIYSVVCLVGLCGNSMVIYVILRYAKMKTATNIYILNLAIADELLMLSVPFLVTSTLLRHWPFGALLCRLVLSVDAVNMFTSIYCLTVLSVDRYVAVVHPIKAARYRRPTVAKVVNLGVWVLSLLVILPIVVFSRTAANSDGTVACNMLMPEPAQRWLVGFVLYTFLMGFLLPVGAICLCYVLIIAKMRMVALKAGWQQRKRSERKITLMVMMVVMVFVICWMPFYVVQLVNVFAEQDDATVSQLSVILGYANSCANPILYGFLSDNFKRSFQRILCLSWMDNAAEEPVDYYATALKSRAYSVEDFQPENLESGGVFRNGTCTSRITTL
T2 sequence (P30874 whole entry): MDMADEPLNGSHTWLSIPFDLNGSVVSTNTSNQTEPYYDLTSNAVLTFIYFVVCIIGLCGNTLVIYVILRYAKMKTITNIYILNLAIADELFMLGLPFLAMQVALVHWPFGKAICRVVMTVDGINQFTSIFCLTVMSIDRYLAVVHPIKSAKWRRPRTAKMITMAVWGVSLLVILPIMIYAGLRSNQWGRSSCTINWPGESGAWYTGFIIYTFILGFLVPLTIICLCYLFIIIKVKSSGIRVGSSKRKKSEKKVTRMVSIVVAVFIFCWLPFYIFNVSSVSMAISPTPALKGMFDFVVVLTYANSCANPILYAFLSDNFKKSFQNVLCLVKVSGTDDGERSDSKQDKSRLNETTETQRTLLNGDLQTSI
T4 sequence (P35346 whole entry): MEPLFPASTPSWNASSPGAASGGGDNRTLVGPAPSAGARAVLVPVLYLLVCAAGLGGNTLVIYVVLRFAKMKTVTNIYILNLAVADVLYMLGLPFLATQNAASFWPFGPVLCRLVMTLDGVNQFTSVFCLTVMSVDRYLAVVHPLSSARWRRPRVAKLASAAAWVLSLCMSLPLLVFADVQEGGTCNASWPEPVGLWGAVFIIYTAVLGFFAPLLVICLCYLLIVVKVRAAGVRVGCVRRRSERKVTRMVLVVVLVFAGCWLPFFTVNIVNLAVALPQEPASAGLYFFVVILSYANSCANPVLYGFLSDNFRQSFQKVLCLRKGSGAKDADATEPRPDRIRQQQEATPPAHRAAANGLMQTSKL
T3 sequence (P32745 whole entry): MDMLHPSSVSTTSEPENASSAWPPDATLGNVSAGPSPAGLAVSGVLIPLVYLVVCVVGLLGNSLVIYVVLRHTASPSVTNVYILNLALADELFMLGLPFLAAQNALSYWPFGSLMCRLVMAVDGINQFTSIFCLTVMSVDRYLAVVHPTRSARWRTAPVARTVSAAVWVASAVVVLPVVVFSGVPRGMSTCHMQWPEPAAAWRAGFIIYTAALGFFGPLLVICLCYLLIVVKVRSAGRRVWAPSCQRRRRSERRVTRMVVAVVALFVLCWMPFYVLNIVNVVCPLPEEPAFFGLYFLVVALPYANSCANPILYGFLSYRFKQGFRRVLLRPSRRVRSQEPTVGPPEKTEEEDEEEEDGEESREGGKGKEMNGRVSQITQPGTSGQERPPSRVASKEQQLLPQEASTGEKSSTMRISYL

A word on the Ki: it is the equilibrium dissociation constant of an inhibitor or competing ligand from its target. With `CCCN1C[C@H](CSCC(=O)N[C@H](Cc2ccccc2)C(=O)NCCOCCOCC(=O)N[C@H](Cc2ccccc2)C(=O)N[C@H]2CSSC[C@@H](C(=O)N[C@H](C(N)=O)[C@@H](C)O)NC(=O)[C@H](C(C)C)NC(=O)[C@H](CCCCN)NC(=O)[C@@H](Cc3c[nH]c4ccccc34)NC(=O)[C@H](Cc3ccc(OC(=O)CSC[C@@H]4C[C@@H]5c6cccc7[nH]cc(c67)C[C@H]5N(CCC)C4)c(I)c3)NC2=O)C[C@@H]2c3cccc4[nH]cc(c34)C[C@H]21` [Example 5] (X1-[dF][AEEA][dF]C[X3][dW]KVCT-NH2; disulfide 4-9), the Ki was 1000 nM on hsst1; 1.65 nM on hsst2; 1050 nM on hsst3; 27.6 nM on hsst5; 105 nM on hUTII; 15.5 nM at hDA2.

Regarding `CCCN1C[C@H](CSCC(=O)NCCN2CCN(CC(=O)N[C@H](Cc3ccccc3)C(=O)N[C@H]3CSSC[C@@H](C(=O)N[C@H](C(N)=O)[C@@H](C)O)NC(=O)[C@H](C(C)C)NC(=O)[C@H](CCCCN)NC(=O)[C@@H](Cc4c[nH]c5ccccc45)NC(=O)[C@H](Cc4ccc(O)c(I)c4)NC3=O)CC2)C[C@@H]2c3cccc4[nH]cc(c34)C[C@H]21` [Example 25], the Ki on hsst1 was determined as 1000 nM; at hsst2, 1.09 nM; on hsst3 it was 423 nM; on hUTII it was 233 nM; on hDA2 it was 345 nM.

Take `CC[C@@H]1NC(=O)[C@H](CCCCN)NC(=O)[C@@H](Cc2c[nH]c3ccccc23)NC(=O)[C@H](Cc2ccc(O)cc2)NC(=O)[C@@H](NC(=O)[C@@H](Cc2ccccc2)NC(=O)CSC[C@@H]2C[C@@H]3c4cccc5[nH]cc(c45)C[C@H]3N(C)C2)CSSC[C@@H](C(=O)N[C@H](C(N)=O)[C@@H](C)O)NC1=O` [Example 30]: the Ki was determined as 689 nM at hsst1; 0.15 nM on hsst2; 49.5 nM at hsst3; 15.7 nM at hsst5; 619 nM at hUTII; 23.7 nM on hDA2.

In the case of `CCCN1C[C@H](CSCC(=O)NCCCC[C@@H](NC(C)=O)C(=O)N[C@H](Cc2ccccc2)C(=O)N[C@H]2CSSC[C@@H](C(=O)N[C@H](C(N)=O)[C@@H](C)O)NC(=O)[C@H]([C@@H](C)O)NC(=O)[C@H](CCCCN)NC(=O)[C@@H](Cc3c[nH]c4ccccc34)NC(=O)[C@H](Cc3ccc(O)c(I)c3)NC2=O)C[C@@H]2c3cccc4[nH]cc(c34)C[C@H]21` [Example 14], the Ki came to 1340 nM at hsst1; 70.3 nM on hsst3; 2.68 nM at hsst5; 1510 nM at hUTII; 44.3 nM at hDA2.

With `CCCN1C[C@H](CSCC(=O)NCCCC[C@@H](NC(=O)CSC[C@@H]2C[C@@H]3c4cccc5[nH]cc(c45)C[C@H]3N(CCC)C2)C(=O)N[C@H](Cc2ccccc2)C(=O)N[C@H]2CSSC[C@@H](C(=O)N[C@H](C(N)=O)[C@@H](C)O)NC(=O)[C@H]([C@@H](C)O)NC(=O)[C@H](CCCCN)NC(=O)[C@@H](Cc3c[nH]c4ccccc34)NC(=O)[C@H](Cc3ccc(O)c(I)c3)NC2=O)C[C@@H]2c3cccc4[nH]cc(c34)C[C@H]21` [Example 13], the Ki stood at 907 nM at hsst1, 196 nM on hsst3, 10.7 nM on hsst5 and 15.2 nM at hDA2.

On to `CCCN1C[C@H](CSCC(=O)N[C@H](Cc2ccccc2)C(=O)N[C@H]2CSSC[C@@H](C(=O)N[C@H](C(N)=O)[C@@H](C)O)NC(=O)[C@H](C(C)C)NC(=O)[C@H](CCCCN)NC(=O)[C@@H](Cc3c[nH]c4ccccc34)NC(=O)[C@H](Cc3ccc(O)c(I)c3)NC2=O)C[C@@H]2c3cccc4[nH]cc(c34)C[C@H]21` [Example 26], for which the Ki worked out at 731 nM at hsst1; 0.4 nM at hsst2; 135 nM at hsst3; 53.2 nM on hUTII; 34 nM on hDA2.

On to `CCCN1C[C@H](CSCC(=O)N[C@H](Cc2ccccc2)C(=O)N[C@H]2CSSC[C@@H](C(=O)N[C@H](C(N)=O)[C@@H](C)O)NC(=O)[C@H](C(C)C)NC(=O)[C@H](CCCCN)NC(=O)[C@@H](Cc3c[nH]c4ccccc34)NC(=O)[C@H](Cc3ccc(OC(=O)CSC[C@@H]4C[C@@H]5c6cccc7[nH]cc(c67)C[C@H]5N(CCC)C4)c(I)c3)NC2=O)C[C@@H]2c3cccc4[nH]cc(c34)C[C@H]21` [Example 3], for which the Ki at hsst1 turned out to be 1000 nM; at hsst2, 0.37 nM; on hsst3 it was 235 nM; on hUTII, 73.5 nM; on hDA2 it was 16.7 nM.

For the molecule `CCCN1C[C@H](CSCC(=O)N[C@H](Cc2ccccc2)C(=O)NCCOCCOCC(=O)N[C@H](Cc2ccccc2)C(=O)N[C@H]2CSSC[C@@H](C(=O)N[C@H](C(N)=O)[C@@H](C)O)NC(=O)[C@H](C(C)C)NC(=O)[C@H](CCCCN)NC(=O)[C@@H](Cc3c[nH]c4ccccc34)NC(=O)[C@H](Cc3ccc(O)c(I)c3)NC2=O)C[C@@H]2c3cccc4[nH]cc(c34)C[C@H]21` [Example 4], the Ki at hsst1 was found to be 1000 nM; at hsst2, 0.84 nM; at hsst3, 397 nM; at hUTII, 83.7 nM; at hDA2 it was 29.6 nM.

Turning to `CCCN1C[C@H](CSCC(=O)N[C@H](Cc2ccccc2)C(=O)N[C@H]2CSSC[C@@H](C(=O)N[C@H](C(N)=O)[C@@H](C)O)NC(=O)[C@H]([C@@H](C)O)NC(=O)[C@H](CCCCN)NC(=O)[C@@H](Cc3c[nH]c4ccccc34)NC(=O)[C@H](Cc3ccc(O)c(I)c3)NC2=O)C[C@@H]2c3cccc4[nH]cc(c34)C[C@H]21` [Example 12], the inhibition constant Ki on hsst1 was determined as 602 nM; at hsst3, 51.5 nM; on hsst5, 4.1 nM; at hUTII it was 676 nM; on hDA2, 25.2 nM.
